Data reported in PMC2901058 (The Journal of Experimental Medicine, 2010).

Test system: JurkatCD8-TK3^WT, JurkatCD8-TK3^Gln55His, and JurkatCD8-TK3^Gln55Ala cell lines
Test: CD69 up-regulation by peptide on C1R-HLA-B*3501 APCs, JurkatCD8-TK3 lines
Assay type: cell-based, human
Details: dose–response, peptide presented on C1R–HLA-B*3501; not depicted

## HPVGEADYFEY
  CD69 up-regulation, comparison between cell lines: no significant differences in CD69 up-regulation
